Legend:
Assay in all cases: relative viability (nuclei count vs DMSO), 5 days (fraction); higher = more cells survive
LCLC-97TM1 = system: LCLC-97TM1
How it was run: (§1)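 After 5 days of treatment, lung cancer cells in 1536-well plates were fixed and stained in a single step (final 0.05% Triton X-100, 1% formaldehyde, 1 ug/ml Hoechst) and their nuclei counted on 4× images. Treatment had been applied by pin tool the day after seeding as one drug alone or as a fixed anchor-drug dose with five library-drug doses (not always all listed) in √10 steps. Relative viability is the nuclei count of treated wells divided by that of vehicle wells, and values are medians of duplicate plates.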

NCI-H1734 = system: NCI-H1734
How it was run: as §1

SW 900 = system: SW 900
How it was run: as §1

SW 1573 = system: SW 1573
How it was run: as §1

LC-2-ad = system: LC-2-ad
How it was run: as §1

NCI-H1563 = system: NCI-H1563
How it was run: as §1

NCI-H2023 = system: NCI-H2023
How it was run: as §1

HCC-44 = system: HCC-44
How it was run: as §1

NCI-H520 = system: NCI-H520
How it was run: as §1

UMC-11 = system: UMC-11
How it was run: as §1

COR-L 105 = system: COR-L 105
How it was run: as §1

NCI-H2342 = system: NCI-H2342
How it was run: as §1

NCI-H1792 = system: NCI-H1792
How it was run: as §1

NCI-H838 = system: NCI-H838
How it was run: as §1

A-427 = system: A-427
How it was run: as §1

CAL-12T = system: CAL-12T
How it was run: as §1

NCI-H1915 = system: NCI-H1915
How it was run: as §1

EPLC-272H = system: EPLC-272H
How it was run: as §1

NCI-H1975 = system: NCI-H1975
How it was run: as §1

HCC-15 = system: HCC-15
How it was run: as §1

NCI-H1395 = system: NCI-H1395
How it was run: as §1

NCI-H2347 = system: NCI-H2347
How it was run: as §1

NCI-H2405 = system: NCI-H2405
How it was run: as §1

CN1CCN(CCOc2cc(OC3CCOCC3)c3c(Nc4c(Cl)ccc5c4OCO5)ncnc3c2)CC1 [Saracatinib] + CCNC(=O)c1noc(-c2cc(C(C)C)c(O)cc2O)c1-c1ccc(CN2CCOCC2)cc1 [Luminespib] (partner 0.01 µM)
relative viability (LCLC-97TM1; first compound 0.02 µM): 0.8 | relative viability (LCLC-97TM1; first compound 0.2 µM): 0.47 | relative viability (LCLC-97TM1; first compound 0.6325 µM): 0.725 | relative viability (LCLC-97TM1; first compound 2 µM): 0.444 | relative viability (NCI-H1734; first compound 0.02 µM): 0.224 | relative viability (NCI-H1734; first compound 0.6325 µM): 0.213 | relative viability (NCI-H1734; first compound 2 µM): 0.181 | relative viability (SW 900; first compound 0.02 µM): 0.187 | relative viability (SW 900; first compound 0.2 µM): 0.152 | relative viability (SW 900; first compound 0.6325 µM): 0.176 | relative viability (SW 900; first compound 2 µM): 0.151 | relative viability (SW 1573; first compound 0.02 µM): 0.195 | relative viability (SW 1573; first compound 0.2 µM): 0.217 | relative viability (SW 1573; first compound 0.6325 µM): 0.374 | relative viability (SW 1573; first compound 2 µM): 0.15 | relative viability (LC-2-ad; first compound 0.02 µM): 0.985 | relative viability (LC-2-ad; first compound 0.2 µM): 0.912 | relative viability (LC-2-ad; first compound 0.6325 µM): 1.1 | relative viability (LC-2-ad; first compound 2 µM): 0.949 | relative viability (NCI-H1563; first compound 0.02 µM): 0.481 | relative viability (NCI-H1563; first compound 0.2 µM): 0.488 | relative viability (NCI-H1563; first compound 0.6325 µM): 0.537 | relative viability (NCI-H1563; first compound 2 µM): 0.525 | relative viability (NCI-H2023; first compound 0.02 µM): 0.773 | relative viability (NCI-H2023; first compound 0.6325 µM): 0.735 | relative viability (NCI-H2023; first compound 2 µM): 0.471 | relative viability (HCC-44; first compound 0.02 µM): 0.972 | relative viability (HCC-44; first compound 0.2 µM): 0.921 | relative viability (HCC-44; first compound 0.6325 µM): 1.32 | relative viability (HCC-44; first compound 2 µM): 0.952 | relative viability (NCI-H520; first compound 0.02 µM): 0.213 | relative viability (NCI-H520; first compound 0.6325 µM): 0.221 | relative viability (NCI-H520; first compound 2 µM): 0.204 | relative viability (UMC-11; first compound 0.02 µM): 0.96 | relative viability (UMC-11; first compound 0.6325 µM): 0.863 | relative viability (UMC-11; first compound 2 µM): 0.624 | relative viability (COR-L 105; first compound 0.02 µM): 0.893 | relative viability (COR-L 105; first compound 0.2 µM): 0.692 | relative viability (COR-L 105; first compound 0.6325 µM): 0.608 | relative viability (COR-L 105; first compound 2 µM): 0.467 | relative viability (NCI-H2342; first compound 0.02 µM): 0.659 | relative viability (NCI-H2342; first compound 0.2 µM): 0.698 | relative viability (NCI-H2342; first compound 0.6325 µM): 0.758 | relative viability (NCI-H2342; first compound 2 µM): 0.519 | relative viability (NCI-H1792; first compound 0.02 µM): 0.369 | relative viability (NCI-H1792; first compound 0.2 µM): 0.463 | relative viability (NCI-H1792; first compound 0.6325 µM): 0.449 | relative viability (NCI-H1792; first compound 2 µM): 0.358 | relative viability (NCI-H838; first compound 0.02 µM): 0.264 | relative viability (NCI-H838; first compound 0.2 µM): 0.411 | relative viability (NCI-H838; first compound 0.6325 µM): 0.307 | relative viability (NCI-H838; first compound 2 µM): 0.271 | relative viability (A-427; first compound 0.02 µM): 0.985 | relative viability (A-427; first compound 0.2 µM): 0.755 | relative viability (A-427; first compound 0.6325 µM): 0.907 | relative viability (A-427; first compound 2 µM): 0.888 | relative viability (CAL-12T; first compound 0.02 µM): 0.335 | relative viability (CAL-12T; first compound 0.2 µM): 0.407 | relative viability (CAL-12T; first compound 0.6325 µM): 0.365 | relative viability (CAL-12T; first compound 2 µM): 0.268 | relative viability (NCI-H1915; first compound 0.02 µM): 0.742 | relative viability (NCI-H1915; first compound 0.2 µM): 0.703 | relative viability (NCI-H1915; first compound 0.6325 µM): 0.872 | relative viability (NCI-H1915; first compound 2 µM): 0.654 | relative viability (EPLC-272H; first compound 0.02 µM): 0.24 | relative viability (EPLC-272H; first compound 0.2 µM): 0.382 | relative viability (EPLC-272H; first compound 0.6325 µM): 0.123 | relative viability (EPLC-272H; first compound 2 µM): 0.197 | relative viability (NCI-H1975; first compound 0.02 µM): 0.202 | relative viability (NCI-H1975; first compound 0.2 µM): 0.243 | relative viability (NCI-H1975; first compound 0.6325 µM): 0.182 | relative viability (NCI-H1975; first compound 2 µM): 0.188 | relative viability (HCC-15; first compound 0.02 µM): 0.343 | relative viability (HCC-15; first compound 0.2 µM): 0.32 | relative viability (HCC-15; first compound 0.6325 µM): 0.331 | relative viability (HCC-15; first compound 2 µM): 0.176 | relative viability (NCI-H1395; first compound 0.02 µM): 0.621 | relative viability (NCI-H1395; first compound 0.2 µM): 0.634 | relative viability (NCI-H1395; first compound 0.6325 µM): 0.79 | relative viability (NCI-H1395; first compound 2 µM): 0.62 | relative viability (NCI-H2347; first compound 0.02 µM): 0.372 | relative viability (NCI-H2347; first compound 0.2 µM): 0.411 | relative viability (NCI-H2347; first compound 0.6325 µM): 0.774 | relative viability (NCI-H2347; first compound 2 µM): 0.416 | relative viability (NCI-H2405; first compound 0.02 µM): 0.588 | relative viability (NCI-H2405; first compound 0.2 µM): 0.525 | relative viability (NCI-H2405; first compound 0.6325 µM): 0.519 | relative viability (NCI-H2405; first compound 2 µM): 0.271

From the supplement of paper PMC10307832
